Where two headings read alike, the source gives them in different places.
Legend:
C57BL/6J mice [1] = experiment: Respiration testing (CLAMS); type: in vivo, mouse; conditions: 100 nmol i.c.v., 90 min
C57BL/6J mice [2] = experiment: Locomotor testing (CLAMS); type: in vivo, mouse; conditions: 100 nmol i.c.v., 90 min
C57BL/6J mice [3] = experiment: Acute antinociceptive tolerance assay (55 °C warm water tail withdrawal); type: in vivo, mouse; conditions: i.c.v.
C57BL/6J mice [4] = experiment: Excreta assay (intestinal transit); conditions: 90 min
hNPFF1-R = target: T1, hNPFF1-R (Homo sapiens, UniProt Q9GZQ6); experiment: Radioligand competition binding at NPFF1-R
T1 construct: expressed in transfected cells; host or cells: CHO cells

hNPFF2-R = target: T2, hNPFF2-R (Homo sapiens, UniProt Q9Y5X5); experiment: Radioligand competition binding at NPFF2-R
T2 construct: expressed in transfected cells; host or cells: CHO cells (membranes)

MOR [5] = target: T3, MOR (Homo sapiens, UniProt P35372); experiment: Radioligand competition binding at MOR
DOR [6] = target: T4, DOR (Homo sapiens, UniProt P41143); experiment: Radioligand competition binding at DOR
KOR [7] = target: T5, KOR (Homo sapiens, UniProt P41145); experiment: biochemical; type: binding
MOR [8] = target: T3, MOR; experiment: [35S]GTPγS functional assay (agonist mode) at MOR; type: biochemical
DOR [9] = target: T4, DOR; experiment: [35S]GTPγS functional assay (agonist mode) at DOR; type: biochemical
KOR [10] = target: T5, KOR; experiment: [35S]GTPγS functional assay (agonist mode) at KOR; type: biochemical
C57BL/6J mice [11] = experiment: Antinociception assay (55 °C warm water tail withdrawal assay); type: in vivo, mouse; conditions: 30 nmol i.c.v., 55 °C
C57BL/6J mice [12] = experiment: Anti-hyperalgesia assay (48 °C warm water tail withdrawal assay, NPFF-induced hyperalgesia); type: in vivo, mouse; conditions: 30 nmol i.c.v. two hours before NPFF 30 nmol i.c.v.
[13] = GTPγS Kappa Agonist Functional Assay EC50 (Figure S2 curve fit), Figure S2, axis Log(M), U69,593 run beside each compound
[14] = [35S]GTPγS KOR EC50 ± SEM, agonist mode, standard U-69,593
[15] = read-out: Receptor Binding, Ki ± SEM NPFF1-R
[16] = [3H]EYF, transfected CHO cell membranes, read-out: Receptor Binding, Ki ± SEM NPFF2-R
[17] = read-out: Receptor Binding, Ki ± SEM DOR
[18] = GTPγS Mu Agonist Functional Assay EC50 (Figure S2 curve fit)
[19] = GTPγS Delta Agonist Functional Assay EC50 (Figure S2 curve fit), Figure S2, axis Log(M), DPDPE run beside each compound
[20] = [35S]GTPγS DOR EC50 ± SEM, agonist mode, standard DPDPE

T3 sequence (P35372 whole entry): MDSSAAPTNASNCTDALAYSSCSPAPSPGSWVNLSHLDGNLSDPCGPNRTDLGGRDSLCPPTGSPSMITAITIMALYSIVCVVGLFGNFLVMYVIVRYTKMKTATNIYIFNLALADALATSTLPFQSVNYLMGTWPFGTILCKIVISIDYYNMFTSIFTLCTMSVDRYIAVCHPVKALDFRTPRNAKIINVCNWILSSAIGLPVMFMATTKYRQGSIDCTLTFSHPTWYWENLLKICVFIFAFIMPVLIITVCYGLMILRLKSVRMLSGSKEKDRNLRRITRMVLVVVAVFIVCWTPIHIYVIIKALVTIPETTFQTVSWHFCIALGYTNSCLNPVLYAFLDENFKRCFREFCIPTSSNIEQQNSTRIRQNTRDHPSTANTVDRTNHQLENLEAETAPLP
T4 sequence (P41143 whole entry): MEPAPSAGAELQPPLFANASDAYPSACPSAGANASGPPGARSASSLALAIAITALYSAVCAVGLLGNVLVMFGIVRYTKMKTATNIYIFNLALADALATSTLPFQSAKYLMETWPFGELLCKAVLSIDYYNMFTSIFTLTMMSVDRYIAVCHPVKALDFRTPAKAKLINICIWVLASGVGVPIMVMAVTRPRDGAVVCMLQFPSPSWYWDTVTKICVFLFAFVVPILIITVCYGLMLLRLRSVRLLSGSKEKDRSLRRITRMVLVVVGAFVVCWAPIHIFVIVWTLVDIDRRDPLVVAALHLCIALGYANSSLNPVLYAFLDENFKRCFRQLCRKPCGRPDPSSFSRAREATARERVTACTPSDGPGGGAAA
T5 sequence (P41145 whole entry): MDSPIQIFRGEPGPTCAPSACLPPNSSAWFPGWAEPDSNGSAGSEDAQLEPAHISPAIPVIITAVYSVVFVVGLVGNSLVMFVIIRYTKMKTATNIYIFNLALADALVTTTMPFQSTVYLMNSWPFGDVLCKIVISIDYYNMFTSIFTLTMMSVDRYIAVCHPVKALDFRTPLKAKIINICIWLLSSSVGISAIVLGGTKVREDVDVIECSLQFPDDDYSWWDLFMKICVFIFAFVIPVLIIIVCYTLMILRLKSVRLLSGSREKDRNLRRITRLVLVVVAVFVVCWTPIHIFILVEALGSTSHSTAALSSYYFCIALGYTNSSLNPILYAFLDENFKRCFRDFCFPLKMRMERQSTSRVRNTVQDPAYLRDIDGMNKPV
T1 sequence (Q9GZQ6 whole entry): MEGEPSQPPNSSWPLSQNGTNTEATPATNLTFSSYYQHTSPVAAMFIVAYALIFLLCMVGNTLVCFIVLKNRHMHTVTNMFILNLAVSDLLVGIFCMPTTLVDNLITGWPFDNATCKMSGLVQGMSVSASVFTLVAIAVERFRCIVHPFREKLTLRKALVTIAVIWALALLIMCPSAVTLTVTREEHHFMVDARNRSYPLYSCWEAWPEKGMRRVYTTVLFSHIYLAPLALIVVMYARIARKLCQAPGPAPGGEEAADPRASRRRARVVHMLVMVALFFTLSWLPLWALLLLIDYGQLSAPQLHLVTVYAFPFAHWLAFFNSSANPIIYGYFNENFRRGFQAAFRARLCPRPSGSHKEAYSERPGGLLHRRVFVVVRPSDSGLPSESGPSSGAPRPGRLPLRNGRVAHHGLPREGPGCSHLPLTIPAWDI
T2 sequence (Q9Y5X5 whole entry): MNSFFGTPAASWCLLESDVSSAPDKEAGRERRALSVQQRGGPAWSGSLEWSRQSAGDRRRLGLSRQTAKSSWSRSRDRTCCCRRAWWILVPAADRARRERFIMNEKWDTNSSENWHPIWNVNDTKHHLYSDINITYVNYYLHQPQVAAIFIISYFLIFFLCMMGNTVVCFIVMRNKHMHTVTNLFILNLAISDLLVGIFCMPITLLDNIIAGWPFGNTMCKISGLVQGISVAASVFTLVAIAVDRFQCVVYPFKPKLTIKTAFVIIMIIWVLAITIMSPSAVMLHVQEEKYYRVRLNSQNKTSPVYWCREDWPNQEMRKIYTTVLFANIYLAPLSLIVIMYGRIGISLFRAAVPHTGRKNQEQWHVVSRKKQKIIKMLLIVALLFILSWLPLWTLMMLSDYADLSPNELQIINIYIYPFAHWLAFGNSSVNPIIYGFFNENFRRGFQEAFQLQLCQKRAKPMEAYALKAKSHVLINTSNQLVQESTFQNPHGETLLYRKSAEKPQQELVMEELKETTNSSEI

| SMILES | Ki (KOR [7]) | EC50 (KOR [10]; [13]) | EC50 (KOR [10]; [14]) | antinociceptive activity over time (screening) (C57BL/6J mice [11]) | prevention of NPFF-induced hyperalgesia (screening) (C57BL/6J mice [12]) | Ki (hNPFF1-R; [15]) | Ki (hNPFF2-R; [16]) | Ki (MOR [5]) | Ki (DOR [6]; [17]) | EC50 (MOR [8]; [35S]GTPγS MOR EC50 ± SEM) | EC50 (DOR [9]; [19]) | EC50 (DOR [9]; [20]) | further results |
| --- | --- | --- | --- | --- | --- | --- | --- | --- | --- | --- | --- | --- | --- |
| CN1CC[C@]23c4c5ccc(O)c4O[C@H]2[C@@H](O)C=C[C@H]3[C@H]1C5 [morphine, reference compound] | – | – | – | – | – | – | – | – | – | – | – | – | effect on respiration rate (C57BL/6J mice [1]): significant respiratory depression; effect on ambulation (spontaneous locomotor activity) (C57BL/6J mice [2]): increased ambulation; antinociception ED50 (95% CI), single administration (C57BL/6J mice [3]; 55 °C, baseline dose response): 2.35 (1.13–5.03) nmol; antinociception ED50 (95% CI), second administration (C57BL/6J mice [3]; given 8 h after a first dose (morphine 3 nmol, 22b 8.7 nmol), 55 °C): 22.5 (8.48–61.9) nmol; rightward shift of antinociceptive dose response (acute tolerance) (C57BL/6J mice [3]; second administration 8 h after first): 9.6 fold; number of excreted fecal boli (C57BL/6J mice [4]; 30 nmol i.c.v.): 1.8 ± 0.8 boli; number of excreted fecal boli (C57BL/6J mice [4]; 100 nmol i.c.v.): 1.5 ± 0.6 boli |
| N=C(N)Nc1ccc(C(=C2CCN(Cc3ccccc3)CC2)c2ccc(O)cc2)cc1 [Compound 14b, 1-(4-((1-Benzylpiperidin-4-ylidene)(4-hydroxyphenyl)methyl)phenyl)guanidine] | 56.6 ± 3.8 nM | 1.36e-07 M | 1.36e-07 ± 2.37e-08 M | displayed antinociception in vivo second only to 22b | more moderate, yet still statistically significant, effect | – | – | – | – | – | – | – | Ki (hNPFF1-R): 1980 ± 288 nM; Ki (hNPFF2-R): 4820 ± 1010 nM; Ki (MOR [5]; read-out: Receptor Binding, Ki ± SEM MOR): 313 ± 11 nM; Ki (DOR [6]): 6.46 ± 1.11 nM; EC50 (MOR [8]): 18600 nM; EC50 (DOR [9]; Figure S2, axis Log(M), DPDPE run beside each compound, read-out: GTPγS Delta Agonist Functional Assay EC50 (Figure S2 curve fit)): 2.27e-07 M; EC50 (DOR [9]; agonist mode, standard DPDPE, read-out: [35S]GTPγS DOR EC50 ± SEM): 2.27e-07 ± 1.25e-08 M |
| N=C(N)Nc1cccc(C(=C2CCN(Cc3ccccc3)CC2)c2ccc(O)cc2)c1 [Compound 14a, 1-(3-((1-Benzylpiperidin-4-ylidene)(4-hydroxyphenyl)methyl)phenyl)guanidine] | 32.3 ± 3.5 nM | – | 4.82e-07 ± 8.16e-08 M | did not produce statistically significant antinociception | greater anti-NPFF activity | 1720 ± 308 nM | > 10000 nM | 33.5 ± 4.7 nM | 2.33 ± 0.6 nM | 420 ± 54.5 nM | 4.55e-07 M | 4.55e-07 ± 6.17e-08 M | reduction of affinity at DOR relative to 13a (DOR [6]; hydroxyl shifted from 3′- to 4′- position): 4 fold; reduction of affinity at KOR relative to 13a (KOR [7]): 11 fold; EC50 (MOR [8]; [18]): 420 nM |
| N=C(N)Nc1ccc(C(=C2CCN(Cc3ccccc3)CC2)c2cccc(O)c2)cc1 [Compound 13b, 1-(4-((1-Benzylpiperidin-4-ylidene)(3-hydroxyphenyl)methyl)phenyl)guanidine] | 30.6 ± 1.1 nM | 2.68e-07 M | 2.68e-07 ± 3.19e-08 M | lacked any marked analgesic activity | greater anti-NPFF activity | 605 ± 136 nM | 6020 ± 1150 nM | 56.2 ± 7.5 nM | 1.67 ± 0.61 nM | 1440 ± 226 nM | 9.61e-09 M | 9.62e-09 ± 1.27e-09 M | – |
| N=C(N)Nc1cccc(C(=C2CCN(Cc3ccccc3)CC2)c2ccccc2)c1 [Compound 22a, 1-(3-((1-Benzylpiperidin-4-ylidene)(phenyl)methyl)phenyl)guanidine] | 91 ± 9.9 nM | – | 2.55e-07 ± 5.77e-08 M | displayed antinociception in vivo second only to 22b | more moderate, yet still statistically significant, effect | 1400 ± 61 nM | 2570 ± 423 nM | 6.45 ± 1.23 nM | 3.37 ± 0.59 nM | 102 ± 21.3 nM | 2.56e-07 M | 2.56e-07 ± 2.49e-08 M | – |
| N=C(N)Nc1cccc(C(=C2CCN(Cc3ccccc3)CC2)c2cccc(O)c2)c1 [Compound 13a, 1-(3-((1-Benzylpiperidin-4-ylidene)(3-hydroxyphenyl)methyl)phenyl)guanidine] | 2.82 ± 0.39 nM | 4.18e-08 M | 4.18e-08 ± 4.9e-09 M | did not show statistically significant antinociceptive activity | more moderate, yet still statistically significant, effect | 2180 ± 280 nM | 7080 ± 1260 nM | 5.06 ± 0.21 nM | 0.481 ± 0.192 nM | 28.3 ± 2.5 nM | – | 2.41e-08 ± 2.5e-09 M | EC50 (MOR [8]; [18]): 28.3 nM |
| CC(C)C[C@H](NC(=O)[C@@H](N)Cc1ccccc1)C(=O)N[C@@H](Cc1ccccc1)C(=O)N[C@@H](CCC(N)=O)C(=O)N1CCC[C@H]1C(=O)N[C@@H](CCC(N)=O)C(=O)N[C@@H](CCCN=C(N)N)C(=O)N[C@@H](Cc1ccccc1)C(N)=O [NPFF, neuropeptide FF, reference compound] | > 10000 nM | – | – | – | – | – | – | > 10000 nM | – | – | – | – | Ki (DOR [6]): > 10000 nM |

Reference: article PMC12251305 (Molecules, 2025)
